Where only a bound is given, the exact number is not on record here.

In this test the target is CBP (Homo sapiens (Human), UniProt Q92793). The test can be described thus: In vitro CBP inhibition (AlphaScreen, biotinylated H4-tetraacetyl peptide). Format: binding. The note with it: AlphaScreen, Table 29; read-out: CBP IC50. The gist of the method: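 His-tagged CBP expressed in E. coli (50 nM final) incubated with biotinylated H4K5/8/12/16(Ac) peptide (20 nM final) in 50 mM HEPES pH 7.3, 10 mM NaCl, 0.25 mM TCEP, 0.1% BSA, 0.005% Brij-35, 0.4% DMSO, 20 min at room temp.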
CBP, sequence (Q92793 1081-1197): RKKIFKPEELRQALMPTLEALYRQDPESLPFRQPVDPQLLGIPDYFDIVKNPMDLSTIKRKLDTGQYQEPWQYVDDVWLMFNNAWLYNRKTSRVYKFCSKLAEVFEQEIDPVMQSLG
As to `CC(c1ccc(C#N)cc1)n1cc(-c2ccc(=O)n(C)c2)cn1` (stereo not shown) [Example 25, 4-(1-(4-(1-methyl-6-oxo-1,6-dihydropyridin-3-yl)-1H-pyrazol-1-yl)ethyl)benzonitrile], the IC50 fell in the range of 500 to 5000 nM.

On to `COc1ccc(-c2cc(=O)n(C)cc2-c2cnn(-c3cccc(F)c3C#N)c2)cn1` [Example 274, 2-Fluoro-6-[4-(6-methoxy-1′-methyl-6′-oxo-1′,6′-dihydro-[3,4′]bipyridinyl-3′-yl)-pyrazol-1-yl]-benzonitrile], for which the IC50 is less than 500 nM.

As to `C[C@H](c1ccccc1)n1cc(-c2cn(C)c(=O)cc2-n2cccn2)cn1` [Example 61, (R)-1-methyl-5-(1-(1-phenylethyl)-1H-pyrazol-4-yl)-4-(1H-pyrazol-1-yl)pyridin-2(1H)-one], the IC50 was less than 500 nM.

For `COc1ccccc1C(C)n1cc(-c2ccc(=O)n(C)c2)cn1` (stereo not shown) [Example 27, 5-(1-(1-(2-methoxy-phenyl)ethyl)-1H-pyrazol-4-yl)-1-methyl-pyridin-2(1H) one], the IC50 is less than 500 nM.

For `Cc1cc(-c2cc(=O)n(C)cc2-c2cnn(-c3ccccc3C#N)c2)c[nH]c1=O` [Example 210, 2-[4-(5,1′-Dimethyl-6,6′-dioxo-1,6,1′,6′-tetrahydro-[3,4′]bipyridinyl-3′-yl)-pyrazol-1-yl]-benzonitrile], the IC50 was less than 500 nM.

For the compound `CCc1ncc(-c2cc(=O)n(C)cc2-c2cnn(-c3cccc(Cl)c3C#N)c2)cn1` [Example 280, 2-chloro-6-(4-(4-(2-ethylpyrimidin-5-yl)-1-methyl-6-oxo-1,6-dihydropyridin-3-yl)-1H-pyrazol-1-yl)benzonitrile], the IC50 was less than 500 nM.

With `Cn1cc(-c2cnn(-c3cccc(Cl)c3C#N)c2)c(-c2ccc(NC3CCCC3)nc2)cc1=O` [Example 340, 2-chloro-6-(4-(6-(cyclopentylamino)-1′-methyl-6′-oxo-1′,6′-dihydro-[3,4′-bipyridin]-3′-yl)-1H-pyrazol-1-yl)benzonitrile], the IC50 was less than 500 nM.

`Cn1cc(-c2cnn(-c3cccc(F)c3C#N)c2)c(-c2ccc(OCC3CC3)nc2)cc1=O` [Example 360, 2-[4-[4-[6-(cyclopropylmethoxy)-3-pyridyl]-1-methyl-6-oxo-3-pyridyl]pyrazol-1-yl]-6-fluoro-benzonitrile]: the IC50 is less than 500 nM.

For `CC(C)Nc1ncc(-c2cc(=O)n(C)cc2-c2cnn(-c3cccc(Cl)c3C#N)c2)cn1` [Example 331, 2-chloro-6-(4-(4-(2-(isopropylamino)pyrimidin-5-yl)-1-methyl-6-oxo-1,6-dihydropyridin-3-yl)-1H-pyrazol-1-yl)benzonitrile], the IC50 was less than 500 nM.

Regarding `Cn1cc(-c2cnn(-c3ccccc3C#N)c2)c(-c2cccnc2)cc1=O` [Example 237, 2-[4-(1′-Methyl-6′-oxo-1′,6′-dihydro-[3,4′]bipyridinyl-3′-yl)-pyrazol-1-yl]-benzonitrile], the IC50 is less than 500 nM.

With `COc1cc(-c2cc(=O)n(C)cc2-c2cnn(-c3cccc(Cl)c3C#N)c2)ccc1C` [Example 279, 2-chloro-6-(4-(4-(3-methoxy-4-methylphenyl)-1-methyl-6-oxo-1,6-dihydropyridin-3-yl)-1H-pyrazol-1-yl)benzonitrile], the IC50 was less than 500 nM.

Turning to `Cn1cc(-c2cn(C)c(=O)cc2C2CC2)cn1` [Example 144, 4-cyclopropyl-1-methyl-5-(1-methyl-1H-pyrazol-4-yl) pyridin-2(1H)-one], the IC50 is less than 500 nM.

In the case of `CCOc1cc(=O)n(C)cc1-c1cnn(-c2cccc(C)c2C#N)c1` [Example 179, 2-[4-(4-Ethoxy-1-methyl-6-oxo-1,6-dihydro-pyridin-3-yl)-pyrazol-1-yl]-6-methyl-benzonitrile], the IC50 was less than 500 nM.

Take `Cn1cc(-c2cnn(-c3cccc(F)c3C#N)c2)c(-c2ccc(C3CC3)nc2)cc1=O` [Example 374, 2-[4-[4-(6-cyclopropyl-3-pyridyl)-1-methyl-6-oxo-3-pyridyl]pyrazol-1-yl]-6-fluoro-benzonitrile]: the IC50 was less than 500 nM.

With `CCNC(=O)c1ccn(-c2cc(=O)n(C)cc2-c2cnn(Cc3ccccc3)c2)c1` [Example 81, 1-(5-(1-benzyl-1H-pyrazol-4-yl)-1-methyl-2-oxo-1,2-dihydro-pyridin-4-yl)-N-ethyl-1H-pyrrole-3-carboxamide], the IC50 is less than 500 nM.

For the compound `Cn1cc(-c2cn(C)c(=O)cc2-c2ccccc2)cn1` [Example 107, 1-methyl-5-(1-methyl-1H-pyrazol-4-yl)-4-phenylpyridin-2(1H)-one], the IC50 is less than 500 nM.

For `Cn1cc(-c2cnn(Cc3ccccc3)c2)c(-c2cnn(CC#N)c2)cc1=O` [Example 163, 2-(4-(5-(1-benzyl-1H-pyrazol-4-yl)-1-methyl-2-oxo-1,2-dihydropyridin-4-yl)-1H-pyrazol-1-yl)acetonitrile], the IC50 was less than 500 nM.

`CC(c1ccccc1)n1cc(-c2cc(C3CC3)c(=O)n(C)c2)cn1` (stereo not shown) [Example 197, 3-Cyclopropyl-1-methyl-5-[1-(1-phenyl-ethyl)1H-pyrazol-4-yl]-1H-pyridin-2-one]: the IC50 was more than 5000 nM.

As for `CCOC(=O)c1c(-c2cc(C)c(=O)n(C)c2)cnn1Cc1ccccc1` [Example 199, 2-Benzyl-4-(1,5-dimethyl-6-oxo-1,6-dihydro-pyridin-3-yl)-2H-pyrazole-3-carboxylic acid ethyl ester], the IC50 is less than 500 nM.

In the case of `CNNc1cc(=O)n(C)cc1-c1cnn(Cc2ccccc2)c1` [Example 99, 5-(1-benzyl-1H-pyrazol-4-yl)-1-methyl-4-(2-methyl-hydrazinyl)-pyridin-2(1H)-one], the IC50 was 500 to 5000 nM.

Regarding `Cc1cccc(C(C)n2cc(-c3ccc(=O)n(C)c3)cn2)c1` (stereo not shown) [Example 20, 1-methyl-5-(1-(1-(m-tolyl)ethyl)-1H-pyrazol-4-yl)pyridin-2(1H)-one], the IC50 was less than 500 nM.

For `Cn1cc(-c2cnn(-c3cccc(F)c3C#N)c2)c(-c2ccc(N3CCCC3)nc2)cc1=O` [Example 350, 2-fluoro-6-[4-[1-methyl-6-oxo-4-(6-pyrrolidin-1-yl-3-pyridyl)-3-pyridyl]pyrazol-1-yl]benzonitrile], the IC50 is less than 500 nM.

As to `Cn1cc(-c2cnn(Cc3ccccc3)c2)c2cnccc2c1=O` [Example 9, 4-(1-benzyl-1H-pyrazol-4-yl)-2-methyl-2,6-naphthyridin-1(2H)-one], the IC50 was less than 500 nM.

As to `CCOc1cc(=O)n(C)cc1-c1cnn2c1CN(C(C)=O)CC2` [Example 393, 5-(5-Acetyl-4,5,6,7-tetrahydro-pyrazolo[1,5-a]pyrazin-3-yl)-4-ethoxy-1-methyl-1H-pyridin-2-one], the concentration for half-maximal inhibition (IC50) fell in the range of 500 to 5000 nM.

As for `CNc1ncc(-c2cc(=O)n(C)cc2-c2cnn(-c3ccccc3C(=O)NC#N)c2)cn1` [Example 295, N-cyano-2-(4-(1-methyl-4-(2-(methylamino)pyrimidin-5-yl)-6-oxo-1,6-dihydropyridin-3-yl)-1H-pyrazol-1-yl)benzamide], the IC50 is less than 500 nM.

Consider `CCOc1cc(=O)n(C)cc1-c1cnn(-c2cccc(C(C)C)c2C#N)c1` [Example 176, 2-[4-(4-Ethoxy-1-methyl-6-oxo-1,6-dihydro-pyridin-3-yl)-pyrazol-1-yl]-6-isopropyl-benzonitrile], for which the IC50 is less than 500 nM.

Turning to `Cn1cc(-c2cnn(Cc3ccccc3)c2)c(-c2cccnc2)cc1=O` [Example 122, 5′-(1-benzyl-1H-pyrazol-4-yl)-1′-methyl-[3,4-bipyridin]-2′(1′H)-one], the IC50 is less than 500 nM.

As to `COc1ccc(-c2cc(=O)n(C)cc2-c2cnn(-c3ccccc3C#N)c2)cn1` [Example 238, 2-(4-(6-methoxy-1′-methyl-6′-oxo-1′,6′-dihydro-[3,4′-bipyridin]-3′-yl)-1H-pyrazol-1-yl)benzonitrile], the IC50 is less than 500 nM.

As for `COc1cc(-c2cc(=O)n(C)cc2-c2cnn(-c3ccccc3C#N)c2)ccn1` [Example 220, 2-[4-(2′-Methoxy-1-methyl-6-oxo-1,6-dihydro-[4,4′]bipyridinyl-3-yl)-pyrazol-1-yl]-benzonitrile], the IC50 is less than 500 nM.

For `COc1ccc(-c2cc(=O)n(C)cc2-c2cnn(-c3ccccc3S(C)(=O)=O)c2)cn1` [Example 285, 5′-[1-(2-Methanesulfonyl-phenyl)-1H-pyrazol-4-yl]-6-methoxy-1′-methyl-1′H-[3,4′]bipyridinyl-2′-one], the IC50 was less than 500 nM.

Regarding `CCS(=O)(=O)NC(=O)c1ccccc1-n1cc(-c2cn(C)c(=O)cc2C2CC2)cn1` [Example 303, Ethanesulfonic acid 2-[4-(4-cyclopropyl-1-methyl-6-oxo-1,6-dihydro-pyridin-3-yl)-pyrazol-1-yl]-benzoylamide], the IC50 is less than 500 nM.

Regarding `CN(C)C(=O)c1ccn(-c2cc(=O)n(C)cc2-c2cnn(Cc3ccccc3)c2)c1` [Example 78, 1-(5-(1-benzyl-1H-pyrazol-4-yl)-1-methyl-2-oxo-1,2-dihydropyridin-4-yl)-N,N-dimethyl-1H-pyrrole-3carboxamide], the IC50 was less than 500 nM.

Regarding `CNC(=O)c1ccn(-c2cc(=O)n(C)cc2-c2cnn(Cc3ccccc3)c2)c1` [Example 76], the IC50 is less than 500 nM.

With `Cn1cc(-c2cnn(-c3cccc(Cl)c3C#N)c2)c(-c2ccc(OC(F)F)nc2)cc1=O` [Example 354, 2-chloro-6-(4-(6-(difluoromethoxy)-1′-methyl-6′-oxo-1′,6′-dihydro-[3,4′-bipyridin]-3′-yl)-1H-pyrazol-1-yl)benzonitrile], the IC50 is less than 500 nM.

For `Cn1nc(-c2cn(C)c(=O)cc2-c2ccccc2)cc1-c1ccccc1` [Example 395, 1-methyl-5-(1-methyl-5-phenyl-1H-pyrazol-3-yl)-4-phenylpyridin-2(1H)-one], the IC50 is less than 500 nM.

Regarding `Cn1cc(-c2ncc(-c3ccccc3)o2)c(-c2ccccc2)cc1=O` [Example 394, 1-methyl-4-phenyl-5-(5-phenyloxazol-2-yl)pyridin-2(1H)-one], the IC50 lay in the range of 500 to 5000 nM.

For `Cn1cc(-c2cnn(Cc3cccc(C#N)c3)c2)ccc1=O` [Example 4, 3-((4-(1-methyl-6-oxo-1,6-dihydropyridin-3-yl)-1H-pyrazol-1-yl)methyl)benzonitrile], the IC50 lay in the range of 500 to 5000 nM.
